The assay has as its system BDF1 mice, C1498 leukemia ip, median survival T/C. The assay can be described thus: NCI In Vivo Anticancer Drug Screen. Data for tumor model C1498 Myeloid Leukemia (intraperitoneal) in B6D2F1 (BDF1) mice. The following applies: endpoint: median survival time, higher = longer survival. The procedure:
The antitumor activity of compounds was measured in mice bearing transplantable tumors. Survival or tumor size were measured and the results are expressed as the measurement made in the treated group (T) divided by the measurement made in the vehicle treated control group (C). The tumor model used in this assay is C1498 Myeloid Leukemia (intraperitoneal) in B6D2F1 (BDF1) mice

Where [1] appears, read: dose: 37.5 mg/kg/injection, schedule: Q01DX010 (ip), vehicle: saline.
[2] abbreviates: dose: 75.0 mg/kg/injection, schedule: Q01DX010 (ip), vehicle: saline.
Setting [3] is: dose: 150.0 mg/kg/injection, schedule: Q01DX010 (ip), vehicle: saline.
Where [4] appears, read: dose: 5.0 mg/kg/injection, schedule: Q01DX010 (ip), vehicle: saline.
Setting [5] is: dose: 10.0 mg/kg/injection, schedule: Q01DX010 (ip), vehicle: saline.
Setting [6] is: dose: 20.0 mg/kg/injection, schedule: Q01DX010 (ip), vehicle: saline.
The mark [7] stands for this setting: dose: 40.0 mg/kg/injection, schedule: Q01DX010 (ip), vehicle: saline.
Setting [8] is: dose: 12.5 mg/kg/injection, schedule: Q01DX010 (sc), vehicle: steriod suspending solution.
[9] abbreviates: dose: 25.0 mg/kg/injection, schedule: Q01DX010 (sc), vehicle: steriod suspending solution.
Setting [10] is: dose: 50.0 mg/kg/injection, schedule: Q01DX010 (sc), vehicle: steriod suspending solution.
The mark [11] stands for this setting: dose: 100.0 mg/kg/injection, schedule: Q01DX010 (sc), vehicle: steriod suspending solution.
Setting [12] is: dose: 80.0 mg/kg/injection, schedule: Q01DX010 (ip), vehicle: saline.
Where [13] appears, read: dose: 6.25 mg/kg/injection, schedule: Q01DX010 (ip), vehicle: saline.
Setting [14] is: dose: 12.5 mg/kg/injection, schedule: Q01DX010 (ip), vehicle: saline.
The mark [15] stands for this setting: dose: 25.0 mg/kg/injection, schedule: Q01DX010 (ip), vehicle: saline.
Setting [16] is: dose: 50.0 mg/kg/injection, schedule: Q01DX010 (ip), vehicle: saline.
[17] abbreviates: dose: 18.8 mg/kg/injection, schedule: Q01DX010 (ip), vehicle: saline.
The mark [18] stands for this setting: dose: 100.0 mg/kg/injection, schedule: Q01DX010 (ip), vehicle: saline.
Where [19] appears, read: dose: 30.0 mg/kg/injection, schedule: Q01DX010 (ip), vehicle: saline.
Setting [20] is: dose: 60.0 mg/kg/injection, schedule: Q01DX010 (ip), vehicle: saline.

Where “and” joins values, the source holds several entries; their conditions need not be identical. Equal entries are not always repeated. Toxic doses and inconclusive results are not listed.

With `CC(=O)NC1=C(N2CC2)C(=O)C(NC(C)=O)=C(N2CC2)C1=O`, the T/C was 108 % of control (dose: 0.13 mg/kg/injection, schedule: Q01DX010 (ip), vehicle: saline); 104 % of control (dose: 125.0 micrograms/kg/injection, schedule: Q01DX010 (ip), vehicle: saline); 109 % of control and 116 % of control (dose: 250.0 micrograms/kg/injection, schedule: Q01DX010 (ip), vehicle: saline).

In the case of `COC(=O)C[C@](O)(CCCC(C)(C)O)C(=O)O[C@@H]1C(OC)=C[C@]23CCCN2CCc2cc4c(cc2[C@H]13)OCO4`, the T/C was 96 % of control (dose: 1.5 mg/kg/injection, schedule: Q01DX009 (ip), vehicle: acid diluted with saline) and 91 % of control (dose: 2.0 mg/kg/injection, schedule: Q01DX009 (ip), vehicle: acid diluted with saline).

Take `CO[C@@H]1[C@@H](OC2OC(C)C(OC3CC(C)(O)C(OC(=O)CC(C)C)C(C)O3)C(N(C)C)C2O)[C@@H](CC=O)C[C@@H](C)C(=O)/C=C/C2O[C@H]2C[C@@H](C)OC(=O)C[C@H]1OC(C)=O` (stereo partly specified): the T/C is, setting by setting: under setting [1], 109 % of control and 91 % of control; under setting [2], 100 % of control and 91 % of control; under setting [3], 95 % of control and 90 % of control; (dose: 300.0 mg/kg/injection, schedule: Q01DX010 (ip), vehicle: saline) 91 % of control and 90 % of control.

For `CN(C)c1ccc(/C=C/c2ccnc3ccccc23)cc1`, the T/C was 100 % of control under setting [4]; 100 % of control and 104 % of control under setting [5]; 95 % of control and 100 % of control under setting [6]; 95 % of control and 109 % of control under setting [7].

As to `CC(=O)O[C@]1(C(C)=O)CC[C@H]2[C@@H]3C[C@H](C)C4=CC(=O)C=C[C@]4(C)[C@@]3(F)[C@@H](O)C[C@@]21C`, the T/C by setting is: under setting [8], 100 % of control; under setting [9], 100 % of control; under setting [10], 100 % of control; under setting [11], 100 % of control.

Turning to `O=NN(CCCl)C(=O)NCCCl`, the T/C (dose: 30.0 mg/kg/injection, schedule: Q01DX001 (ip), vehicle: saline + alcohol) was 420 % of control and the T/C (dose: 35.0 mg/kg/injection, schedule: Q01DX001 (ip), vehicle: saline + alcohol) was 247 % of control.

As to `O=c1[nH]c(=O)n(C2CC(O)C(CO)O2)cc1F` (stereo unspecified), the T/C reads like this: under setting [4], 109 % of control; under setting [5], 115 % of control and 118 % of control; under setting [7], 154 % of control; under setting [12], 107 % of control.

In the case of `O=[n+]1c2c(n([O-])c3ccccc31)-c1cccc3cccc-2c13`, the T/C by setting is: (dose: 3.13 mg/kg/injection, schedule: Q01DX010 (ip), vehicle: saline) 90 % of control; under setting [13], 90 % of control; under setting [14], 90 % of control; under setting [15], 90 % of control.

On to `O=P1(N(CCCl)CCCl)NCCCO1` (stereo unspecified), for which the T/C runs as follows: (dose: 200.0 mg/kg/injection, schedule: Q01DX001 (ip), vehicle: saline) 162 % of control and 207 % of control; (dose: 300.0 mg/kg/injection, schedule: Q01DX001 (ip), vehicle: saline) 171 % of control and 241 % of control.

As for `CS(=O)(=O)OCCCCOS(C)(=O)=O`, the T/C under setting [13] is 95 % of control; the T/C under setting [14] is 95 % of control and 90 % of control; the T/C under setting [15] is 113 % of control; the T/C under setting [16] was 109 % of control and 119 % of control.

Regarding `CS(=O)(=O)OCCN(CCOS(C)(=O)=O)c1ccc(N=O)cc1`, the T/C (dose: 0.25 mg/kg/injection, schedule: Q01DX010 (ip), vehicle: saline) was 122 % of control.

As to `CN(C)c1nc(N(C)C)nc(N(C)C)n1`, the T/C is, setting by setting: under setting [17], 100 % of control and 109 % of control; under setting [1], 104 % of control and 118 % of control; under setting [2], 100 % of control and 109 % of control; under setting [3], 109 % of control and 118 % of control.

`O=c1c(O)cccc2cc(O)c(O)c(O)c12`: the T/C is 90 % of control under setting [15] and 100 % of control under setting [16].

Consider `CSc1ncnc2nc[nH]c12`, for which the T/C was 100 % of control under setting [14], 95 % of control under setting [15], 100 % of control under setting [16] and 100 % of control under setting [18].

`Cc1cc(N(CCCl)CCCl)ccc1N=Nc1ccccc1C(=O)O`: the T/C under setting [6] was 113 % of control.

On to `CCCSc1ncnc2nc[nH]c12`, for which the T/C is, setting by setting: (dose: 31.3 mg/kg/injection, schedule: Q01DX010 (ip), vehicle: saline) 100 % of control and 104 % of control; (dose: 62.5 mg/kg/injection, schedule: Q01DX010 (ip), vehicle: saline) 100 % of control and 109 % of control; (dose: 125.0 mg/kg/injection, schedule: Q01DX010 (ip), vehicle: saline) 104 % of control and 90 % of control.

Take `COc1cc2c(c3c1c(=O)c1ccccc1n3C)C=CC(C)(C)O2`: the T/C by setting is: (dose: 6.25 mg/kg/injection, schedule: Q01DX010 (ip), vehicle: other) 100 % of control; (dose: 12.5 mg/kg/injection, schedule: Q01DX010 (ip), vehicle: other) 107 % of control; (dose: 25.0 mg/kg/injection, schedule: Q01DX010 (ip), vehicle: other) 103 % of control; (dose: 50.0 mg/kg/injection, schedule: Q01DX010 (ip), vehicle: other) 119 % of control; (dose: 100.0 mg/kg/injection, schedule: Q01DX010 (ip), vehicle: other) 100 % of control.

On to `N#[N+]c1cnc([O-])[nH]c1=O`, for which the T/C by setting is: (dose: 1.25 mg/kg/injection, schedule: Q01DX010 (ip), vehicle: saline) 100 % of control; (dose: 2.5 mg/kg/injection, schedule: Q01DX010 (ip), vehicle: saline) 122 % of control; under setting [4], 113 % of control; under setting [5], 118 % of control.

As for `C[C@]12C=CC(=O)C=C1CC[C@@H]1[C@@H]2[C@@H](O)C[C@@]2(C)[C@H]1CC[C@]2(O)C(=O)CO`, the T/C under setting [8] was 92 % of control, the T/C under setting [9] was 88 % of control, the T/C under setting [10] was 92 % of control and the T/C under setting [11] was 92 % of control.

Take `COc1cc(-c2ccc(Nc3ccccc3C(=O)O)c(OC)c2)ccc1Nc1ccccc1C(=O)O`: the T/C under setting [15] is 112 % of control, the T/C under setting [16] was 104 % of control and the T/C under setting [18] is 100 % of control.

With `N#CCSc1ncnc2nc[nH]c12`, the T/C is 105 % of control under setting [19] and 110 % of control under setting [20].

As for `CN(C)[C@@H]1C(=O)C(C(N)=O)=C(O)[C@@]2(O)C(=O)C3=C(O)c4c(O)cccc4C[C@H]3C[C@@H]12`, the T/C reads like this: (dose: 7.5 mg/kg/injection, schedule: Q01DX010 (ip), vehicle: saline) 105 % of control and 116 % of control; (dose: 15.0 mg/kg/injection, schedule: Q01DX010 (ip), vehicle: saline) 110 % of control and 112 % of control; under setting [19], 95 % of control; under setting [20], 95 % of control.

`CS(=O)(=O)OCCCl`: the T/C is, setting by setting: under setting [17], 90 % of control; under setting [1], 104 % of control; under setting [2], 90 % of control.

Regarding `N=[N+]=CC(=O)OCC(N)C(=O)O` (stereo unspecified), the T/C under setting [13] was 150 % of control.

For `CC(CCC(C)OS(C)(=O)=O)OS(C)(=O)=O` (stereo unspecified), the T/C runs as follows: (dose: 4.0 mg/kg/injection, schedule: Q01DX010 (ip), vehicle: saline) 109 % of control; (dose: 8.0 mg/kg/injection, schedule: Q01DX010 (ip), vehicle: saline) 95 % of control; (dose: 16.0 mg/kg/injection, schedule: Q01DX010 (ip), vehicle: saline) 100 % of control; (dose: 32.0 mg/kg/injection, schedule: Q01DX010 (ip), vehicle: saline) 104 % of control.

In the case of `N=C(N)c1ccc(Nc2ccc(C(=N)N)cc2)cc1`, the T/C runs as follows: (dose: 1.5 mg/kg/injection, schedule: Q01DX010 (ip), vehicle: saline) 100 % of control; (dose: 3.0 mg/kg/injection, schedule: Q01DX010 (ip), vehicle: saline) 90 % of control; (dose: 6.0 mg/kg/injection, schedule: Q01DX010 (ip), vehicle: saline) 86 % of control; (dose: 12.0 mg/kg/injection, schedule: Q01DX010 (ip), vehicle: saline) 86 % of control.

On to `Cn1c(N)nc2nc[nH]c2c1=S`, for which the T/C under setting [5] was 100 % of control, the T/C under setting [6] was 104 % of control, the T/C under setting [7] is 109 % of control and the T/C under setting [12] was 109 % of control.

Source of the values: PubChem BioAssay AID312 (DTP/NCI, 2004).
